From ChEMBL document CHEMBL1201862, “PubChem BioAssay data set” (2004)
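Where inhibition never reached the appropriate level, the endpoint shown equals the highest concentration tested. Otherwise, values were interpolated linearly from a five-concentration, 48-hour dose response in 96-well plates. The concentration for 50% growth inhibition is given as GI50.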 Active and inactive are the calls of the source. Rule as the data show it: active = GI50 up to about 1.1 µM and inactive = higher.

Experiments:
Experiment in all cases: DTP human tumour cell line panel, 48 h
T47D = system: T47D
NCI-H522 = system: NCI-H522
SK-MEL-5 = system: SK-MEL-5
SR = system: SR
RXF 393 = system: RXF 393
UO-31 = system: UO-31
M14 = system: M14
HCC 2998 = system: HCC 2998
HCT-15 = system: HCT-15
A549 = system: A549
KM12 = system: KM12
MOLT-4 = system: MOLT-4
COLO 205 = system: COLO 205
NCI/ADR-RES = system: NCI/ADR-RES
CCRF-CEM = system: CCRF-CEM
EKVX = system: EKVX
OVCAR-5 = system: OVCAR-5
SF-295 = system: SF-295
MDA-N = system: MDA-N
SF-539 = system: SF-539
MDA-MB-231 = system: MDA-MB-231
OVCAR-8 = system: OVCAR-8
U-251 = system: U-251
SNB-75 = system: SNB-75
NCI-H226 = system: NCI-H226
SK-MEL-28 = system: SK-MEL-28
IGROV-1 = system: IGROV-1
DU-145 = system: DU-145
NCI-H460 = system: NCI-H460
RPMI-8226 = system: RPMI-8226
TK-10 = system: TK-10
SF-268 = system: SF-268
SN12C = system: SN12C
ACHN = system: ACHN
SK-MEL-2 = system: SK-MEL-2
UACC-257 = system: UACC-257
UACC-62 = system: UACC-62
PC-3 = system: PC-3
NCI-H23 = system: NCI-H23
MCF7 = system: MCF7
MDA-MB-435 = system: MDA-MB-435
CAKI-1 = system: CAKI-1
HCT-116 = system: HCT-116
SK-OV-3 = system: SK-OV-3
HT-29 = system: HT-29
K562 = system: K562
SW-620 = system: SW-620
LOX IMVI = system: LOX IMVI
OVCAR-4 = system: OVCAR-4
HOP-92 = system: HOP-92
SNB-19 = system: SNB-19
HOP-62 = system: HOP-62
786-0 = system: 786-0
Hs-578T = system: Hs-578T
HL-60 = system: HL-60
OVCAR-3 = system: OVCAR-3
Malme-3M = system: Malme-3M

Compound: Cc1cc(=O)oc2c(CNC(C)C(=O)O)c(O)ccc12 (configuration not stated)
- GI50 (T47D): > 100 µM (inactive)
- GI50 (NCI-H522): > 100 µM (inactive)
- GI50 (SK-MEL-5): > 100 µM (inactive)
- GI50 (SR): > 100 µM (inactive)
- GI50 (RXF 393): > 100 µM (inactive)
- GI50 (UO-31): 36.9 µM (inactive)
- GI50 (M14): > 100 µM (inactive)
- GI50 (HCC 2998): > 100 µM (inactive)
- GI50 (HCT-15): > 100 µM
- GI50 (A549): > 100 µM (inactive)
- GI50 (KM12): > 100 µM (inactive)
- GI50 (MOLT-4): > 100 µM (inactive)
- GI50 (COLO 205): > 100 µM (inactive)
- GI50 (NCI/ADR-RES): > 100 µM (inactive)
- GI50 (CCRF-CEM): > 100 µM (inactive)
- GI50 (EKVX): > 100 µM (inactive)
- GI50 (OVCAR-5): > 100 µM (inactive)
- GI50 (SF-295): > 100 µM (inactive)
- GI50 (MDA-N): > 100 µM (inactive)
- GI50 (SF-539): > 100 µM (inactive)
- GI50 (MDA-MB-231): > 100 µM (inactive)
- GI50 (OVCAR-8): > 100 µM (inactive)
- GI50 (U-251): > 100 µM (inactive)
- GI50 (SNB-75): > 100 µM (inactive)
- GI50 (NCI-H226): > 100 µM (inactive)
- GI50 (SK-MEL-28): > 100 µM (inactive)
- GI50 (IGROV-1): > 100 µM (inactive)
- GI50 (DU-145): > 100 µM (inactive)
- GI50 (NCI-H460): > 100 µM (inactive)
- GI50 (RPMI-8226): > 100 µM (inactive)
- GI50 (TK-10): 95.7 µM (inactive)
- GI50 (SF-268): > 100 µM (inactive)
- GI50 (SN12C): > 100 µM (inactive)
- GI50 (ACHN): > 100 µM (inactive)
- GI50 (SK-MEL-2): > 100 µM (inactive)
- GI50 (UACC-257): > 100 µM (inactive)
- GI50 (UACC-62): > 100 µM (inactive)
- GI50 (PC-3): > 100 µM (inactive)
- GI50 (NCI-H23): > 100 µM (inactive)
- GI50 (MCF7): > 100 µM (inactive)
- GI50 (MDA-MB-435): > 100 µM (inactive)
- GI50 (CAKI-1): > 100 µM (inactive)
- GI50 (HCT-116): 71.4 µM (inactive)
- GI50 (SK-OV-3): > 100 µM (inactive)
- GI50 (HT-29): > 100 µM (inactive)
- GI50 (K562): > 100 µM (inactive)
- GI50 (SW-620): > 100 µM (inactive)
- GI50 (LOX IMVI): > 100 µM (inactive)
- GI50 (OVCAR-4): > 100 µM (inactive)
- GI50 (HOP-92): 65.3 µM (inactive)
- GI50 (SNB-19): > 100 µM (inactive)
- GI50 (HOP-62): > 100 µM (inactive)
- GI50 (786-0): > 100 µM (inactive)
- GI50 (Hs-578T): > 100 µM (inactive)
- GI50 (HL-60): > 100 µM (inactive)
- GI50 (OVCAR-3): > 100 µM (inactive)
- GI50 (Malme-3M): > 100 µM (inactive)
